The values that follow come from patent publication US20260053942A1, “STING AGONIST IMMUNOSTIMULATORY ANTIBODY DRUG CONJUGATES” (ASTELLAS PHARAMA INC., priority 2024, published 2026).

Like-named read-outs stand apart in the source and are kept apart here.

Test [1] relates to NCI-H1703 (Trop2-). Briefly: Cell proliferation (cell killing) assay, Cell Titer-Glo, 120 hours. Type of test: cell-based, human. Here is the method: (§1) The cytotoxicity of the ADCs, iSACs and iADCs was measured in a cell proliferation assay. TROP2 positive NCI-H292, NCI-H441 cells and TROP2 negative NCI-H460 and NCI-H1703 cells were obtained from ATCC (American Type Culture Collection) and maintained in DMEM/F12 (1:1), high glucose (Corning) supplemented with 10% heat-inactivated fetal bovine serum (Thermo Scientific), 2 mM glutamax (Thermo Scientific), and 1× Penicillin/Streptomycin (Corning).
(§2) Cells were collected and counted by the Vi-CELL Cell Viability Analyzers (Beckman Coulter). A total of 7500 cells in a volume of 50 uL were seeded in each well of a 96-well flat bottom white Polystyrene plate. Test articles were diluted at 2× final concentration in the cell culture medium and 50 uL was added into each treatment well. Assay plates were cultured at 37° C. in a CO2 incubator for 120 hours. For cell viability measurement, 60 μL of Cell Titer-Glo® reagent (Promega Corp. Madison, WI) was added into each well, and plates were processed as per product instructions. Relative luminescence was measured on an ENVISION® plate reader (Perkin-Elmer; Waltham, MA). Relative luminescence readings were converted to % viability using untreated cells as controls. Data was fitted with non-linear regression analysis, using log(inhibitor) vs. response-variable slope, 4 parameter fit equation using GraphPad Prism (GraphPad v 5.00, Software; San Diego, CA).

In test [2] the test system is NCI-H292 (Trop2+). Described as above. Type of test: cell-based, human. Here is the method: as §1, §2
Test [3] concerns NCI-H441 (Trop2+). The description is as above. In kind it is cell-based, human. Here is the method:
as §1, §2

Test [4] relates to TROP2 positive NCI-H292, NCI-H441 cells and TROP2 negative NCI-H460 and NCI-H1703 cells. Briefly: Cell proliferation (cell killing) assay, cell line panel. In kind it is cell-based, human. The following applies: all TROP2 positive and negative cell lines tested. Here is the method:
as §1, §2

In test [5] the test system is NCI-H441 cells and human PBMCs. Briefly: NCI-H441/PBMC co-culture (title of Table 16): cytokine (IP-10) release. Further details: key: NC = Not Calculable due to incomplete curve. Type of test: cell-based. The protocol: (§3) For the co-culture assay, cancer cells were plated on transparent flat bottom polystyrene plates and allowed to attach overnight. The next day, serially diluted (1:4) test articles were formulated at 3× starting concentration in complete RPMI media and added onto each well. Human PBMCs were thawed and resuspended in RPMI supplemented with 10% heat-inactivated fetal bovine serum from Hyclone, 1% Penicillin/Streptomycin and 2 mM/L-glutamax. PBMCs were then added into the same well at a final ratio of PBMCs:cancer cells=30:1. Plates were incubated for 2 or 3 days at 37° C. with 5% CO2 in a cell culture incubator.
To measure the cytokine released in this assay, customized MSD V-plex plates were ordered to measure human IL6, IP-10, TNFα, IFNγ, IL-1α, MCP-1, MIP1α. The supernatant was thawed and diluted 1:50 using dilution buffer provided by the vendor before being added into the MSD plates. Cytokine measurement in the cell culture supernatant was carried out using protocols provided by the vendor. Raw data generated by the Meso Scale Discovery (MSD®) SQ120 plate reader were imported into MSD Discovery Workbench software. Unknown sample values were interpolated from standard curves by the software and imported into GraphPad Prism. Each cytokine level was fitted with non-linear regression analysis, using log(agonist) vs. response, variable slope, 4-parameter fit equation in GraphPad Prism. […]

For test [6], the system named is NCI-H460 cells. Briefly: NCI-H460/PBMC co-culture (TROP2 negative): tumor cell killing. In kind it is cell-based, human. Here is the method:
The ability of different TROP2 iADCs to induce cancer cell killing, immune activation, and cytokine release was evaluated in an in vitro co-culture assay with human cancer cells and human PBMCs.
Residual RBCs were removed using ACK lysis buffer (Gibco) for 10 minutes, followed by DPBS wash. Isolated PBMCs were counted, resuspended in freezing medium (Sigma) and stored in a freezing vessel at −80° C. for 24 hours before being transferred to vapor-phase liquid nitrogen for long-term storage.
as §3
On the day of sample collection, cell culture supernatants were collected and stored at −80° C. until cytokine release analyses were performed. All the cells in the well were combined (both suspension and adherent cells) and resuspended in 50 μL of PBS containing Live/Dead Fixable Violet Dead Cell Stain (Thermo Fisher) and 1× human Fc block (BD Biosciences) and incubated at 37° C. for 20 minutes. […] After incubation on ice for 1 hour, cells were washed with FACS buffer and fixed with 50 uL/well of 2% PFA (paraformaldehyde) for 20 minutes. Cells were then washed with FACS buffer again and read on Cytek flow cytometer. FACS data analysis was done by Flowjo software to identify monocytes, B cells, CD4+ T cells, CD8+ T cells, NK cells and Dendritic cells and their activation status. Data from Flowjo was exported and plotted using non-linear regression analysis, log(agonist/inhibitor) vs. response, variable slope, 4-parameter fit equation in GraphPad Prism. […]

The subject of test [7] is NCI-H292 cells. Nature of the test: IP-10 and IL-6 release from TROP2 positive NCI-H292 cells, 120 hours (MSD). Type of test: cell-based, human. The following applies: for EC50: Homo sapiens. The protocol:
The cell supernatant was collected and IP-10 and IL-6 released in the cell culture medium was measured using Streptavidin single spot 96 well plates, compatible human antibody pairs, and calibrating solutions commercially available from MesoScale Discovery. Raw data generated by the Meso Scale Discovery (MSD®) SQ120 plate reader was imported into MSD Discovery Workbench software. Unknown sample values were interpolated from standard curves by the software and imported into Graphpad Prism. Each cytokine level was fitted with non-linear regression analysis, using log(agonist) vs. response, variable slope, 4-parameter fit equation in GraphPad Prism.

For `CC[C@@]1(O)C(=O)OCc2c1cc1n(c2=O)Cc2c-1nc1cc(F)c(C)c3c1c2[C@@H](N)CC3` [Exatecan, exatecan, reference compound], the values for the Span cell killing in test [1], in test [2] and in test [3] were 95%, 80% and 89%, respectively. Moreover, the EC50 in test [1] (Homo sapiens) turned out to be 1.04 nM; in test [2] (Homo sapiens) it was 0.88 nM; in test [3] (Homo sapiens), 0.57 nM; in test [7] (TROP2 positive NCI-H292 cells, read-out: IL-6 Release EC50), 14.7 nM; in test [7] (TROP2 positive NCI-H292 cells, read-out: IP-10 Release EC50) it was 0.87 nM. Besides, in test [4], the “cell killing (in words)” value was “good cell killing”. Besides, the entries for the “IP-10 Release Span” value in test [5] and in test [7] (TROP2 positive NCI-H292 cells) were “NC” and 203 pg/mL, respectively. Further, the concentration for half-maximal inhibition (IC50) in test [6] (Homo sapiens, NCI-H460/PBMC co-culture, TROP2 negative, tumor cell killing, read-out: Cancer Cell Count IC50) was found to be 0.38 nM. Further, in test [6] (NCI-H460/PBMC co-culture, TROP2 negative), the “Cancer Cell Count Span” value is recorded as 23,530 Cell Count. Besides, the “tumor cell killing (in words)” value in test [6] (TROP2 negative NCI-H460/PBMC co-culture) was “potent tumor cell killing”. In addition, in test [7] (NCI-H292 cells), the “induction of IP-10 and IL-6 release (in words)” value is reported as “not”. The “IL-6 Release Span” value in test [7] (TROP2 positive NCI-H292 cells) came to 1410 pg/mL.

One may read the EC50 as the concentration giving half of the maximal effect. By IC50 is commonly meant the midpoint of a concentration-inhibition curve.
